# In patent publication US20210046010A1, “TABLETS CONTAINING ARGININE AT HIGH CONCENTRATION” (KYOWA HAKKO BIO CO., LTD., priority 2015, published 2021):
# Key:
# [1] = Moisture content of powder by heating and drying method moisture analyzer; assay type: physicochemical; conditions: heating and drying method moisture analyzer MX-50
# Experimental: (§1) 600 g of L-arginine was added to 5 L of water, and the mixture was mixed, and spray dried by a spray dryer [L-8i type spray dryer (manufactured by OHKAWARA KAKOHKI CO., LTD.)] set to the conditions of atomizer rotation number=35,000 rpm, inlet temperature=180° C. and outlet temperature=70° C. to give a powder. The moisture content of the aforementioned powder was measured by a heating and drying method moisture analyzer [heating and drying method moisture analyzer MX-50 (manufactured by A&D Company, Limited)] to find 1.96 mass % The moisture content was 2.3 mass % when measured by the Karl Fischer's method at the General Incorporated Foundations Japan Food Research Laboratories. Hereinafter this powder is indicated to as “SD arginine-A”.
# [2] = Moisture content of powder by Karl Fischer's method; assay type: physicochemical; conditions: Japan Food Research Laboratories
# Experimental: as §1
SMILES,moisture content [1] [mass %],moisture content [2] [mass %]
"N=C(N)NCCC[C@H](N)C(=O)O [SD arginine-A, L-arginine]",1.96,2.3
"N=C(N)NCCC[C@H](N)C(=O)O [SD arginine-B, L-arginine]",1.81,–
"N=C(N)NCCC[C@H](N)C(=O)O [SD arginine-C, L-arginine]",3.80,3.91
